According to ChEMBL document CHEMBL1177754, “Onionin A from Allium cepa inhibits macrophage activation” (J Nat Prod, 2010):
Activity calls are given as the source filed them. The calls are words filed in the database; no cut-off is given here.

Test system: Macrophage
Assay: Inhibition of CD163 expression in human monocyte-derived macrophages at 30 uM for 24 hrs treated before IL10 challenge for 2 days by cell-ELISA
Type: functional, cell-based

## C/C=C/[C@H]1[C@H](C)[C@@H](C)[C@@H]([SH+][O-])[S+]1[O-] (stereo partly specified)
  Activity: Active
